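Interpolation was linear, between the two tested concentrations surrounding the appropriate level; five concentrations were tested over 48 hours in 96-well plates. GI50 = concentration required for 50% inhibition of growth.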 Calls of active or inactive are those of the source. Rule as the data show it: active = GI50 up to about 1.1 µM and inactive = higher.
Columns and labels:
Experiment in all cases: DTP human tumour cell line panel, 48 h
HL-60 = tested on: HL-60
OVCAR-3 = tested on: OVCAR-3
Malme-3M = tested on: Malme-3M
MDA-MB-231 = tested on: MDA-MB-231
IGROV-1 = tested on: IGROV-1
OVCAR-8 = tested on: OVCAR-8
UACC-62 = tested on: UACC-62
NCI-H460 = tested on: NCI-H460
SK-OV-3 = tested on: SK-OV-3
K562 = tested on: K562
OVCAR-4 = tested on: OVCAR-4
CCRF-CEM = tested on: CCRF-CEM
SW-620 = tested on: SW-620
HCT-116 = tested on: HCT-116
A498 = tested on: A498
DU-145 = tested on: DU-145
HOP-62 = tested on: HOP-62
SR = tested on: SR
KM12 = tested on: KM12
SF-295 = tested on: SF-295

SMILES: N#CC(O)CCOCc1ccccc1 (stereo unspecified)
- GI50 (HL-60): 34.4 µM (inactive)
- GI50 (OVCAR-3): > 100 µM (inactive)
- GI50 (Malme-3M): > 10 µM (inactive)
- GI50 (MDA-MB-231): > 100 µM (inactive)
- GI50 (IGROV-1): > 100 µM (inactive)
- GI50 (OVCAR-8): > 100 µM (inactive)
- GI50 (UACC-62): > 100 µM (inactive)
- GI50 (NCI-H460): > 100 µM (inactive)
- GI50 (SK-OV-3): > 100 µM (inactive)
- GI50 (K562): 80.7 µM (inactive)
- GI50 (OVCAR-4): > 100 µM (inactive)
- GI50 (CCRF-CEM): 35.4 µM (inactive)
- GI50 (SW-620): 45.4 µM (inactive)
- GI50 (HCT-116): 66.5 µM (inactive)
- GI50 (A498): > 100 µM (inactive)
- GI50 (DU-145): > 100 µM (inactive)
- GI50 (HOP-62): > 100 µM (inactive)
- GI50 (SR): > 100 µM (inactive)
- GI50 (KM12): > 100 µM (inactive)
- GI50 (SF-295): > 100 µM (inactive)

SMILES: Cc1ccc2c(c1)CC1(C2)Cc2ccc(C)cc2C1=O (stereo unspecified)
- GI50 (HL-60): 19 µM (inactive)
- GI50 (OVCAR-3): 23.9 µM (inactive)
- GI50 (Malme-3M): 12.5 µM (inactive)
- GI50 (MDA-MB-231): 21.5 µM (inactive)
- GI50 (IGROV-1): 36 µM (inactive)
- GI50 (OVCAR-8): 36.5 µM (inactive)
- GI50 (NCI-H460): 23.3 µM (inactive)
- GI50 (SK-OV-3): 59.3 µM (inactive)
- GI50 (K562): 22.8 µM (inactive)
- GI50 (OVCAR-4): 46.5 µM (inactive)
- GI50 (CCRF-CEM): 22.1 µM (inactive)
- GI50 (SW-620): 30.6 µM (inactive)
- GI50 (HCT-116): 21.2 µM (inactive)
- GI50 (A498): 36.9 µM (inactive)
- GI50 (DU-145): 31.9 µM (inactive)
- GI50 (HOP-62): 28 µM (inactive)
- GI50 (SR): 12.6 µM (inactive)
- GI50 (KM12): 23.5 µM (inactive)
- GI50 (SF-295): 45.9 µM (inactive)

SMILES: O=C(O)C(Br)C(Br)C(=O)O (stereo unspecified)
- GI50 (HL-60): > 100 µM (inactive)
- GI50 (OVCAR-3): > 100 µM (inactive)
- GI50 (Malme-3M): > 100 µM (inactive)
- GI50 (MDA-MB-231): > 100 µM (inactive)
- GI50 (IGROV-1): > 100 µM (inactive)
- GI50 (OVCAR-8): > 100 µM (inactive)
- GI50 (UACC-62): > 100 µM (inactive)
- GI50 (NCI-H460): > 100 µM (inactive)
- GI50 (SK-OV-3): > 100 µM (inactive)
- GI50 (K562): > 100 µM (inactive)
- GI50 (OVCAR-4): > 100 µM (inactive)
- GI50 (SW-620): > 100 µM (inactive)
- GI50 (HCT-116): > 100 µM (inactive)
- GI50 (A498): > 100 µM (inactive)
- GI50 (DU-145): > 100 µM (inactive)
- GI50 (HOP-62): > 100 µM (inactive)
- GI50 (SR): 28.2 µM (inactive)
- GI50 (KM12): > 100 µM (inactive)
- GI50 (SF-295): > 100 µM (inactive)

SMILES: COc1cc(CNNC(N)=S)cc(OC)c1OC
- GI50 (HL-60): > 100 µM (inactive)
- GI50 (OVCAR-3): > 100 µM (inactive)
- GI50 (Malme-3M): > 100 µM (inactive)
- GI50 (MDA-MB-231): > 100 µM (inactive)
- GI50 (IGROV-1): > 100 µM (inactive)
- GI50 (OVCAR-8): > 100 µM (inactive)
- GI50 (NCI-H460): > 100 µM (inactive)
- GI50 (K562): > 100 µM (inactive)
- GI50 (CCRF-CEM): > 100 µM (inactive)
- GI50 (SW-620): > 100 µM (inactive)
- GI50 (HCT-116): > 100 µM (inactive)
- GI50 (A498): > 100 µM (inactive)
- GI50 (DU-145): > 100 µM (inactive)
- GI50 (HOP-62): 90.6 µM (inactive)
- GI50 (SR): > 100 µM (inactive)
- GI50 (KM12): > 100 µM (inactive)
- GI50 (SF-295): > 100 µM (inactive)

SMILES: COC(=O)[C@@]1(Cc2ccc(OC(C)=O)cc2)Cc2cc3ccccc3n2N1
- GI50 (HL-60): 20.3 µM (inactive)
- GI50 (OVCAR-3): 69.5 µM (inactive)
- GI50 (Malme-3M): 47.5 µM (inactive)
- GI50 (MDA-MB-231): 29.2 µM (inactive)
- GI50 (IGROV-1): 55.8 µM (inactive)
- GI50 (OVCAR-8): 50.8 µM (inactive)
- GI50 (UACC-62): 57.4 µM (inactive)
- GI50 (SK-OV-3): > 100 µM (inactive)
- GI50 (OVCAR-4): 75.5 µM (inactive)
- GI50 (CCRF-CEM): 26.5 µM (inactive)
- GI50 (SW-620): 29.2 µM (inactive)
- GI50 (HCT-116): 35 µM (inactive)
- GI50 (A498): 23.1 µM (inactive)
- GI50 (DU-145): 62.4 µM (inactive)
- GI50 (HOP-62): > 100 µM (inactive)
- GI50 (SR): 13.5 µM (inactive)
- GI50 (KM12): 60.7 µM (inactive)
- GI50 (SF-295): 46.8 µM (inactive)

SMILES: CC1(C)OC[C@@H](O)[C@H](Br)CO1
- GI50 (HL-60): > 100 µM (inactive)
- GI50 (OVCAR-3): > 100 µM (inactive)
- GI50 (Malme-3M): > 100 µM (inactive)
- GI50 (MDA-MB-231): > 100 µM (inactive)
- GI50 (OVCAR-8): > 100 µM (inactive)
- GI50 (UACC-62): > 100 µM (inactive)
- GI50 (NCI-H460): > 100 µM (inactive)
- GI50 (SK-OV-3): > 100 µM (inactive)
- GI50 (K562): 79.8 µM (inactive)
- GI50 (OVCAR-4): > 100 µM (inactive)
- GI50 (CCRF-CEM): > 100 µM (inactive)
- GI50 (SW-620): > 100 µM (inactive)
- GI50 (HCT-116): > 100 µM (inactive)
- GI50 (A498): > 100 µM (inactive)
- GI50 (DU-145): > 100 µM (inactive)
- GI50 (HOP-62): > 100 µM (inactive)
- GI50 (SR): > 100 µM (inactive)
- GI50 (KM12): > 100 µM (inactive)
- GI50 (SF-295): > 100 µM (inactive)

SMILES: CN(C(=O)C1=CCCCCC1)c1ccccc1I
- GI50 (HL-60): 13.7 µM (inactive)
- GI50 (OVCAR-3): 49.7 µM (inactive)
- GI50 (MDA-MB-231): 67.8 µM (inactive)
- GI50 (IGROV-1): 32.8 µM (inactive)
- GI50 (OVCAR-8): 38.5 µM (inactive)
- GI50 (UACC-62): 33.2 µM (inactive)
- GI50 (NCI-H460): 32 µM (inactive)
- GI50 (SK-OV-3): 43.5 µM (inactive)
- GI50 (K562): 59.2 µM (inactive)
- GI50 (OVCAR-4): 18.2 µM (inactive)
- GI50 (CCRF-CEM): 41.7 µM (inactive)
- GI50 (SW-620): 40.6 µM (inactive)
- GI50 (HCT-116): 25.9 µM (inactive)
- GI50 (A498): 0.201 µM (active)
- GI50 (DU-145): 50.7 µM (inactive)
- GI50 (HOP-62): 63.4 µM (inactive)
- GI50 (SR): 39 µM (inactive)
- GI50 (KM12): 19.1 µM (inactive)
- GI50 (SF-295): 44.9 µM (inactive)

Reference: ChEMBL document CHEMBL1201862, “PubChem BioAssay data set” (2004)
